Data on 20 compounds can be found in patent publication US9115149B2, “Heterocyclic compounds as inhibitors of fatty acid biosysnthesis for bacterial infections” (Vitas Pharma Research Private Limited, priority 2011, dated 2015).

Values after ≈ are worked out from the molar mass of the structure shown. Like-named read-outs stand apart in the source and are kept apart here.

For data set [1], the system named is Staphylococcus aureus (ATCC29213). The experiment in a line: MIC by microbroth dilution, methicillin sensitive S. aureus. The data set is classed as cell-based. The conditions noted are these: read-out: Minimum inhibitory concentration (MIC) Staphylococcus aureus (ATCC29213). On the procedure:
(§1) Shown below are the biological activities of representative compounds of the invention. The compounds were tested by the microbroth dilution method (National committee for Clinical Laboratory Standards, M07-A8, Volume 29, 2009) to determine the Minimum Inhibitory Concentration (MIC) against Methicillin sensitive and resistant Staphylococcus aureus. The MICs in the presence of 10% BSA was also tested. Further, select compounds were tested for metabolic stability using mouse liver microsomes based on published protocols (Journal of Biological Sciences, 2008, 8, 1110-1114).

The test system of data set [2] is Methicillin resistant Staphylococcus aureus (ATCC 33591). Kind of data set: MIC by microbroth dilution, methicillin resistant S. aureus. The data set is classed as cell-based. The conditions noted are these: ATCC33591, read-out: Minimum inhibitory concentration (MIC) Methicillin resistant Staphylococcus aureus (ATCC 33591). On the procedure: as §1
Data set [3] concerns Bacillus subtilis (ΔFabI, ΔFabL; Pxylose SaFabI). Kind of data set: Target specificity: MIC in B. subtilis expressing S. aureus FabI under xylose inducible promoter. The data set is classed as cell-based. The procedure:
To test for target specificity, the MIC was determined in a Bacillus subtilis strain in which the two FabI homologues (FabI and FabL) were deleted and replaced with S. aureus FabI (Sa FabI) under a Xylose inducible promoter. By varying the amount of xylose in the growth medium, the expression of FabI was proportionately modified. Compounds specifically targeting Sa FabI show an increased MIC when higher amounts of FabI are present in the cell (high Xylose concentrations). In contrast, when FabI levels are low, the cell becomes hypersusceptible, reducing the MIC (low Xylose concentrations). […] Shown below are data for target specificity.

A short description of data set [4]: Metabolic stability in mouse liver microsomes. The data set is classed as in vitro ADME. The procedure: as §1
The nature of data set [5]: Pharmacokinetic profile in male Swiss albino mice. The conditions noted are these: mouse, in vivo. The procedure: The following compounds were dosed to male Swiss albino mice to determine the pharmacokinetic profiles.
In data set [6] the test system is Methicillin resistant Staphylococcus aureus (ATCC 33591). Kind of data set: MIC in the presence of BSA. The data set is classed as cell-based. The conditions noted are these: ATCC33591, 10% BSA. On the procedure: as §1
Where [7] appears, read: read-out: MIC in the presence of 0.005% Xylose (low Xylose concentration).
[8] abbreviates: read-out: MIC in the presence of 0.5% Xylose (high Xylose concentration).
Setting [9] is: intravenous single dose 5 mg/kg body weight.

On to `CN(Cc1cc2ccccc2n1C)C(=O)/C=C/c1cnc2[nH]c(=O)[nH]c2c1` [VT-02-00002, (E)-N-methyl-N-((1-methyl-1H-indol-2-yl)methyl)-3-(2-oxo-2,3-dihydro-1H-imidazo[4,5-b]pyridin-6-yl)acrylamide], for which the MIC was determined as 1 µg/mL (≈ 2.77 µM) in data set [1], 2 µg/mL (≈ 5.53 µM) in data set [2], 0.06 µg/mL in data set [3] (setting [7]) and 1 µg/mL in data set [3] (setting [8]).

`CN(Cc1cc2ccccc2n1C)C(=O)/C=C/c1cnc2[nH]nc(N)c2c1` [VT-02-00029a, (E)-3-(3-amino-1H-pyrazolo[3,4-b]pyridin-5-yl)-N-methyl-N-((1-methyl-1H-indol-2-yl)methyl)acrylamide]: the MIC in data set [1] stood at 1 µg/mL (≈ 2.77 µM); in data set [2], 2 µg/mL (≈ 5.55 µM); in data set [3] (setting [7]), 0.03 µg/mL; in data set [3] (setting [8]), 0.5 µg/mL.

For the compound `CN(Cc1cc2ccccc2n1C)C(=O)/C=C/c1cnc2[nH]ncc2c1` [VT-02-00032, (E)-N-Methyl-N-(1-methyl-1H-indol-2-ylmethyl)-3-(1H-pyrazolo[3,4-b]pyridin-5-yl)-acrylamide], the MIC was determined as 4 µg/mL (≈ 11.6 µM) in data set [1], 4 µg/mL (≈ 11.6 µM) in data set [2], 0.125 µg/mL in data set [3] (setting [7]) and 4 µg/mL in data set [3] (setting [8]).

For `CN(Cc1cc2ccccc2n1C)C(=O)/C=C/c1cnc2[nH]c3ccccc3c2c1` [VT-02-00034, (E)-N-methyl-N-((1-methyl-1H-indol-2-yl)methyl)-3-(9H-pyrido[2,3-b]indol-3-yl)acrylamide], the MIC in data set [1] and in data set [2] was > 64 µg/mL throughout.

With `CN(Cc1cc2ccccc2n1C)C(=O)/C=C/c1ccc2[nH]c3ncccc3c2c1` [VT-02-00034a, (E)-N-methyl-N-((1-methyl-1H-indol-2-yl)methyl)-3-(9H-pyrido[2,3-b]indol-6-yl)acrylamide], the MIC in data set [1] and in data set [2] was > 32 µg/mL in each case.

`CNc1n[nH]c2ncc(/C=C/C(=O)N(C)Cc3cc4ccccc4n3C)cc12` [VT-02-00036, (E)-N-Methyl-3-(3-methylamino-1H-pyrazolo[3,4-b]pyridin-5-yl)-N-(1-methyl-1H-indol-2-ylmethyl)-acrylamide]: the MIC stood at 8 µg/mL (≈ 21.4 µM) in data set [1], 8 µg/mL (≈ 21.4 µM) in data set [2], 0.5 µg/mL in data set [3] (setting [7]) and 2 µg/mL in data set [3] (setting [8]).

For `CN1CCC(Nc2n[nH]c3ncc(/C=C/C(=O)N(C)Cc4cc5ccccc5n4C)cc23)CC1` [VT-02-00037, (E)-N-methyl-N-((1-methyl-1H-indol-2-yl)methyl)-3-(3-(1-methylpiperidin-4-ylamino)-1H-pyrazolo[3,4-b]pyridin-5-yl)acrylamide], the MIC in data set [1] and in data set [2] was > 32 µg/mL each time.

For the compound `CCNc1n[nH]c2ncc(/C=C/C(=O)N(C)Cc3cc4ccccc4n3C)cc12` [VT-02-00038, (E)-3-(3-(ethylamino)-1H-pyrazolo[3,4-b]pyridin-5-yl)-N-methyl-N-((1-methyl-1H-indol-2-yl)methyl)acrylamide], the MIC in data set [1] and in data set [2] was > 32 µg/mL each time.

As to `CN(Cc1cc2ccccc2n1C)C(=O)/C=C/c1cnc2[nH]nc(N(C)C)c2c1` [VT-02-00039, (E)-3-(3-Dimethylamino-1H-pyrazolo[3,4-b]pyridin-5-yl)-N-methyl-N-(1-methyl-1H-indol-2-ylmethyl)-acrylamide], the MIC in data set [1] is 2 µg/mL (≈ 5.15 µM). Also, the MIC in data set [2] was found to be 2 µg/mL (≈ 5.15 µM). Besides, the “Metabolic stability (mouse liver microsomes) % of compound remaining after 30 minutes” value in data set [4] was 46%. Further, the MIC in data set [3] (setting [7]) was determined as 0.06 µg/mL. Also, the MIC in data set [3] (setting [8]) is 1 µg/mL. Besides, in data set [5] (setting [9]), the AUC came out at 908 ng·h/mL, the Cmax was 868 ng/mL, the clearance was 91.5 mL/min/kg and the half-life is 46.2 min. Also, the bioavailability in data set [5] (po) was found to be 19%.

Consider `CN(Cc1cc2ccccc2n1C)C(=O)/C=C/c1cnc2[nH]c(=O)n(C)c2c1` [VT-02-00043, (E)-N-Methyl-N-(1-methyl-1H-indol-2-ylmethyl)-3-(1-methyl-2-oxo-2,3-dihydro-1H-imidazo[4,5-b]pyridin-6-yl)-acrylamide], for which the MIC in data set [1] turned out to be 4 µg/mL (≈ 10.7 µM); in data set [2], 8 µg/mL (≈ 21.3 µM); in data set [3] (setting [7]), 0.0078 µg/mL; in data set [3] (setting [8]), 0.03 µg/mL.

As for `COc1n[nH]c2ncc(/C=C/C(=O)N(C)Cc3cc4ccccc4n3C)cc12` [VT-02-00046, (E)-3-(3-Methoxy-1H-pyrazolo[3,4-b]pyridin-5-yl)-N-methyl-N-(1-methyl-1H-indol-2-ylmethyl)-acrylamide], the MIC in data set [1], in data set [2], in data set [3] (setting [7]) and in data set [3] (setting [8]) was > 32 µg/mL throughout.

Turning to `CCn1c(=O)[nH]c2ncc(/C=C/C(=O)N(C)Cc3cc4ccccc4s3)cc21` [VT-02-00049, (E)-N-(benzo[b]thiophen-2-ylmethyl)-3-(1-ethyl-2-oxo-2,3-dihydro-1H-imidazo[4,5-b]pyridin-6-yl)-N-methylacrylamide], the MIC in data set [1] worked out at 0.5 µg/mL (≈ 1.27 µM); in data set [2] it was 0.5 µg/mL (≈ 1.27 µM); in data set [3] (setting [7]), 0.00048 µg/mL; in data set [3] (setting [8]), 0.031 µg/mL. The “Metabolic stability (mouse liver microsomes) % of compound remaining after 30 minutes” value in data set [4] stood at 44%.

For the compound `CN(Cc1cc2ccccc2n1C)C(=O)/C=C/c1cnc2c(c1)CC(=O)N2` [VT-02-00050, (E)-N-methyl-N-((1-methyl-1H-indol-2-yl)methyl)-3-(2-oxo-2,3-dihydro-1H-pyrrolo[2,3-b]pyridin-5-yl)acrylamide], the MIC in data set [1] and in data set [2] was 2 µg/mL (≈ 5.55 µM) each time.

As to `CCn1c(=O)[nH]c2ncc(/C=C/C(=O)N(C)Cc3nc4ccccc4s3)cc21` [VT-02-00054, (E)-N-(benzo[d]thiazol-2-ylmethyl)-3-(1-ethyl-2-oxo-2,3-dihydro-1H-imidazo[4,5-b]pyridin-6-yl)-N-methylacrylamide], the MIC in data set [1] and in data set [2] was > 16 µg/mL each time.

For `CN(Cc1cc2ccccc2n1C)C(=O)/C=C/c1cnc2c(c1)C(C)(C)C(=O)N2` [VT-02-00055, (E)-3-(3,3-dimethyl-2-oxo-2,3-dihydro-1H-pyrrolo[2,3-b]pyridin-5-yl)-N-methyl-N-((1-methyl-1H-indol-2-yl)methyl)acrylamide], the MIC in data set [1] amounted to 0.25 µg/mL (≈ 0.644 µM); in data set [2], 0.25 µg/mL (≈ 0.644 µM); in data set [6], 2 µg/mL; in data set [3] (setting [7]), 0.06 µg/mL; in data set [3] (setting [8]), 2 µg/mL. The “Metabolic stability (mouse liver microsomes) % of compound remaining after 30 minutes” value in data set [4] is given as 40.3%.

As to `CN(Cc1cc2ccccc2n1C)C(=O)/C=C/c1cnc2[nH]c(=O)oc2c1` [VT-02-00058, (E)-N-methyl-N-((1-methyl-1H-indol-2-yl)methyl)-3-(2-oxo-2,3-dihydrooxazolo[4,5-b]pyridin-6-yl)acrylamide], the MIC in data set [1] and in data set [2] was > 16 µg/mL each time.

On to `CN(Cc1cc2ccccc2n1C)C(=O)/C=C/c1cnc2[nH]cnc2c1` [VT-02-00060, (E)-3-(3H-imidazo[4,5-b]pyridin-6-yl)-N-methyl-N-((1-methyl-1H-indol-2-yl)methyl)acrylamide], for which the MIC in data set [1] and in data set [2] was > 16 µg/mL each time.

With `CN(Cc1cc2ccccc2s1)C(=O)/C=C/c1cnc2c(c1)C(C)(C)C(=O)N2` [VT-02-00066, (E)-N-(benzo[b]thiophen-2-ylmethyl)-3-(3,3-dimethyl-2-oxo-2,3-dihydro-1H-pyrrolo[2,3-b]pyridin-5-yl)-N-methylacrylamide], the MIC is 0.5 µg/mL (≈ 1.28 µM) in data set [1]; 0.5 µg/mL (≈ 1.28 µM) in data set [2]; 4 µg/mL in data set [6]; 0.0078 µg/mL in data set [3] (setting [7]); 1 µg/mL in data set [3] (setting [8]). Moreover, in data set [4], the “Metabolic stability (mouse liver microsomes) % of compound remaining after 30 minutes” value was 29%.

For the compound `Cc1c(CN(C)C(=O)/C=C/c2cnc3c(c2)C(C)(C)C(=O)N3)sc2ccccc12` [VT-02-00069, (E)-3-(3,3-dimethyl-2-oxo-2,3-dihydro-1H-pyrrolo[2,3-b]pyridin-5-yl)-N-methyl-N-((3-methylbenzo[b]thiophen-2-yl)methyl)acrylamide], the MIC came to 0.015 µg/mL (≈ 0.037 µM) in data set [1]; 0.015 µg/mL (≈ 0.037 µM) in data set [2]; 1 µg/mL in data set [6]; 0.0002 µg/mL in data set [3] (setting [7]); 0.015 µg/mL in data set [3] (setting [8]). Further, in data set [4], the “Metabolic stability (mouse liver microsomes) % of compound remaining after 30 minutes” value is listed as 10%.

For the compound `Cn1c2c(c3ccccc31)CN(C(=O)/C=C/c1cnc3c(c1)C1(CCC1)C(=O)N3)CC2` [VT-02-00082, (E)-5′-(3-(5-methyl-3,4-dihydro-1H-pyrido[4,3-b]indol-2(5H)-yl)-3-oxoprop-1-enyl)spiro[cyclobutane-1,3′-pyrrolo[2,3-b]pyridin]-2′(1′H)-one], the MIC in data set [1] and in data set [2] was > 8 µg/mL throughout.
